Reference: ChEMBL document CHEMBL4819085, “Dipyridyl-substituted thiosemicarbazone as a potent broad-spectrum inhibitor of metallo-β-lactamases” (Bioorg Med Chem, 2021)
≈ marks a conversion by molar mass, not a printed value. Calls of active or inactive are those of the source. The calls are words filed in the database; no cut-off is given here.

Key:
[1] = system: Klebsiella pneumoniae; test: Potentiation of meropenem-induced antibacterial activity against Klebsiella pneumoniae assessed as meropenem MIC incubated for 24 hrs by broth microdilution method; type: functional
[2] = system: Escherichia coli; test: Synergistic antibacterial activity against Escherichia coli at 16 ug/ml in presence of meropenem; type: functional, organism-based; settings: dose 16.0 µg/ml
[3] = Competitive inhibition of bacterial NDM-1 expressed in Escherichia coli BL21 (DE3) using meropenem as substrate incubated for 1 hr by Lineweaver-Burk plot analysis; design: species or system Bacteria
[4] = system: Escherichia coli; test: Antibacterial activity against Escherichia coli producing ImiS assessed as fractional inhibitory concentration index incubated for 24 hrs in presence of meropenem by checkerboard assay; type: functional
[5] = system: Escherichia coli; test: Inhibition of Escherichia coli NDM-1 assessed as potentiation of meropenem-induced antibacterial activity by measuring meropenem MIC incubated for 24 hrs by broth microdilution method
[6] = Binding affinity to Zn2+ ion assessed as UV absorption peak at 435 nm at 50 uM incubated for 5 mins in presence of ZnCl2 by spectrometry analysis
[7] = system: Escherichia coli; test: Antibacterial activity against Escherichia coli producing IMP-1 assessed as fractional inhibitory concentration index incubated for 24 hrs in presence of meropenem by checkerboard assay; type: functional, organism-based
[8] = system: Klebsiella pneumoniae; test: Potentiation of meropenem-induced antibacterial activity against Klebsiella pneumoniae assessed as fold reduction in meropenem MIC incubated for 24 hrs by broth microdilution method relative to meropenem alone; type: functional
[9] = system: Bacteria; test: Reversible inhibition of bacterial NDM-1 assessed as residual activity at 50 uM incubated for 6 hrs by dialysis method relative to control
[10] = system: Escherichia coli; test: Inhibition of Escherichia coli ImiS assessed as potentiation of meropenem-induced antibacterial activity by measuring fold reduction in meropenem MIC up to 8 ug/ml incubated for 24 hrs by broth microdilution method relative to meropenem alone; settings: dose microg/ml <=8, time 24.0 hrs
[11] = (§1) Inhibition of bacterial IMP-1 using meropenem as substrate incubated for 1 hr by spectrometry analysis; design: species or system Bacteria
[12] = system: Bacteria; test: as §1
[13] = system: Escherichia coli; test: Potentiation of meropenem-induced antibacterial activity against Escherichia coli 01 assessed as fold reduction in meropenem MIC incubated for 24 hrs by broth microdilution method relative to meropenem alone; type: functional
[14] = (§2) Inhibition of bacterial ImiS expressed in Escherichia coli BL21 (DE3) using meropenem as substrate incubated for 1 hr by spectrometry analysis; design: species or system Bacteria
[15] = system: Bacteria; test: as §2
[16] = system: Bacteria; test: Inhibition of bacterial ImiS expressed in Escherichia coli BL21 (DE3) at 20 uM using meropenem as substrate incubated for 1 hr by spectrometry analysis relative to control
[17] = system: Escherichia coli; test: Potentiation of meropenem-induced antibacterial activity against Escherichia coli 01 assessed as meropenem MIC incubated for 24 hrs by broth microdilution method; type: functional
[18] = system: Bacteria; test: Inhibition of bacterial IMP-1 at 20 uM using meropenem as substrate incubated for 1 hr by spectrometry analysis relative to control
[19] = system: Escherichia coli; test: Inhibition of Escherichia coli L1 assessed as potentiation of meropenem-induced antibacterial activity by measuring fold reduction in meropenem MIC up to 8 ug/ml incubated for 24 hrs by broth microdilution method relative to meropenem alone; settings: dose microg/ml <=8, time 24.0 hrs
[20] = system: Escherichia coli; test: Antibacterial activity against Escherichia coli 24 assessed as reduction in bacterial growth incubated for 24 hrs by broth microdilution method; type: functional
[21] = system: Escherichia coli; test: Potentiation of meropenem-induced antibacterial activity against Escherichia coli 24 assessed as meropenem MIC incubated for 24 hrs by broth microdilution method; type: functional
[22] = system: Bacteria; test: Reversible inhibition of bacterial NDM-1 assessed as enzyme activity at 50 uM incubated for 6 hrs by ICP-MS analysis
[23] = system: Escherichia coli; test: Inhibition of Escherichia coli L1 assessed as potentiation of meropenem-induced antibacterial activity by measuring meropenem MIC incubated for 24 hrs by broth microdilution method
[24] = system: Escherichia coli; test: Bactericidal activity against Escherichia coli producing NDM-1 assessed as reduction in bacterial viability at 4 ug/ml in presence of meropenem incubated for 12 hrs by time kill assay; type: functional, organism-based; settings: dose 4.0 µg/ml
[25] = target: Metallo-beta-lactamase type 2 (Klebsiella pneumoniae, UniProt C7C422); test: Inhibition of NDM-1 in Klebsiella pneumoniae using meropenem as substrate incubated for 0.5 hrs
Sequence of Metallo-beta-lactamase type 2 (C7C422 whole entry): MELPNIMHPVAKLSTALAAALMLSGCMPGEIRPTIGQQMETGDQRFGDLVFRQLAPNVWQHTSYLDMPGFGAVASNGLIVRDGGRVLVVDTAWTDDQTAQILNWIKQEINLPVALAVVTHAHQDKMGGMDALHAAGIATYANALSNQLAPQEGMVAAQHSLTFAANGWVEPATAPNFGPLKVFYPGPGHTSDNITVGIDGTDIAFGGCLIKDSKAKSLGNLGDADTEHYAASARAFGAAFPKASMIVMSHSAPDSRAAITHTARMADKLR

[26] = system: Escherichia coli; test: Inhibition of Escherichia coli ImiS assessed as potentiation of meropenem-induced antibacterial activity by measuring meropenem MIC incubated for 24 hrs by broth microdilution method
[27] = system: Escherichia coli; test: Antibacterial activity against Escherichia coli producing VIM-2 assessed as fractional inhibitory concentration index incubated for 24 hrs in presence of meropenem by checkerboard assay; type: functional
[28] = (§3) Inhibition of bacterial L1 using meropenem as substrate incubated for 1 hr by spectrometry analysis; design: species or system Bacteria
[29] = system: Bacteria; test: as §3
[30] = (§4) Inhibition of bacterial VIM-2 expressed in Escherichia coli BL21 (DE3) using meropenem as substrate incubated for 1 hr by spectrometry analysis; design: species or system Bacteria
[31] = system: Bacteria; test: as §4
[32] = Cytotoxicity against African green monkey Vero E6 cells assessed as cell viability at 50 uM relative to control; type: cell-based, Vero C1008; settings: chlorocebus sabaeus, read-out: Activity
[33] = system: Enterococcus faecium; test: Antibacterial activity against vancomycin-resistant Enterococcus faecium assessed as reduction in bacterial growth incubated for 24 hrs by broth microdilution method; type: functional
[34] = system: Escherichia coli; test: Inhibition of Escherichia coli NDM-1 assessed as bacterial growth rate in presence of ZnCl2 and meropenem relative to control; design: scale not given: the % may be the effect or the level left
[35] = target: Metallo-beta-lactamase (Escherichia coli) (UniProt Q5U7L7); test: Inhibition of Escherichia coli VIM-2 assessed as potentiation of meropenem-induced antibacterial activity by measuring fold reduction in meropenem MIC up to 8 ug/ml incubated for 24 hrs by broth microdilution method relative to meropenem alone; settings: dose microg/ml <=8, time 24.0 hrs
[36] = system: Klebsiella pneumoniae; test: In vivo antibacterial activity against Klebsiella pneumoniae producing NDM-1 infected in mouse assessed as reduction in bacterial load in liver at 2 mg/kg, ip; type: functional, organism-based
[37] = system: Escherichia coli; test: Inhibition of Escherichia coli NDM-1 assessed as potentiation of meropenem-induced antibacterial activity by measuring fold reduction in meropenem MIC up to 8 ug/ml incubated for 24 hrs by broth microdilution method relative to meropenem alone; settings: dose microg/ml <=8, time 24.0 hrs
[38] = system: Klebsiella pneumoniae; test: In vivo antibacterial activity against Klebsiella pneumoniae producing NDM-1 infected in mouse assessed as reduction in bacterial load in spleen at 2 mg/kg, ip; type: functional, organism-based
[39] = system: Pseudomonas aeruginosa; test: Antibacterial activity against Carbapenem-resistant Pseudomonas aeruginosa assessed as reduction in bacterial growth incubated for 24 hrs by broth microdilution method; type: functional
[40] = system: Escherichia coli; test: Antibacterial activity against Escherichia coli 01 assessed as reduction in bacterial growth incubated for 24 hrs by broth microdilution method; type: functional
[41] = system: Escherichia coli; test: Bactericidal activity against Escherichia coli producing NDM-1 assessed as reduction in bacterial viability upto 64 ug/ml incubated for 12 hrs by time kill assay; type: functional; settings: dose microg/ml <=64
[42] = system: Escherichia coli; test: Potentiation of meropenem-induced antibacterial activity against Escherichia coli 04 assessed as meropenem MIC incubated for 24 hrs by broth microdilution method; type: functional
[43] = system: Bacteria; test: Inhibition of bacterial NDM-1 expressed in Escherichia coli BL21 (DE3) at 20 uM using meropenem as substrate incubated for 1 hr by spectrometry analysis relative to control

In the case of `CN(C(=S)NN=C(c1ccccn1)c1ccccn1)C1CCCCC1`, the MIC [1] is reported as 32 µg/mL, the Activity [2] is reported as “Active” and the Ki [3] is reported as 10.2 nM. For the same compound, the FIC [4] was 0.313, the MIC [5] was 8 µg/mL and the Activity [6] was “Active”. For the same compound, the Activity [7] was “inactive”, the “fold change (FC)” value [8] was 8 and the Activity [9] was 70%. The fold change (FC) [10] was 64, the IC50 [11] was 280 nM and the inhibition [12] was “Dose-Dependent Effect”. For the same compound, the “fold change (FC)” value [13] was 2, the IC50 [14] was 75 nM and the inhibition [15] was “Dose-Dependent Effect”. The inhibition [16] was over 90%, the MIC [17] was 32 µg/mL and the inhibition [18] was over 90%. It also gave a fold change (FC) [19] of 4, an MIC [20] of 16 µg/mL (≈ 45.3 µM) and an MIC [21] of 16 µg/mL. For the same compound, the inhibition [22] was “Active”, the MIC [23] was 32 µg/mL and the inhibition [24] was “Active”. The IC50 [25] was 13600 nM, the MIC [26] was 4 µg/mL and the FIC [27] was 0.313. The IC50 [28] was 1080 nM, the inhibition [29] was “Dose-Dependent Effect” and the IC50 [30] was 110 nM. For the same compound, the inhibition [31] was “Dose-Dependent Effect”, the viability at 50 µM [32] was over 70% and the MIC [33] was 16 µg/mL (≈ 45.3 µM). For the same compound, the Activity [34] was 65%, the fold change (FC) [35] was 32 and the inhibition [36] was “inactive”. The fold change (FC) [37] was 256, the inhibition [38] was “inactive” and the MIC [39] was 16 µg/mL (≈ 45.3 µM). The MIC [40] was 16 µg/mL (≈ 45.3 µM), the “inhibition (INH)” value [41] was 99% and the MIC [42] was 16 µg/mL. For the same compound, the inhibition [43] was over 90%.
